Results from publication PMC8537897, “Design, Synthesis and Biological Evaluation of Aromatase Inhibitors Based on Sulfonates and Sulfonamides of Resveratrol” (Pharmaceuticals, 2021).
Like-named read-outs stand apart in the source and are kept apart here.

Experiments:
[1] = test system: normal human skin fibroblast (HFF-1); assay: Cell metabolic activity (MTT assay) on HFF-1; type: cell-based
Description: The compounds were then biologically characterized in terms of cytotoxicity occurrence (LDH released) on MCF7 cells. […] After 24 h of treatment, a dose-dependent decrease in cell metabolic activity can be registered for all the compounds with respect to DMSO alone. […] Similar results were obtained also after 72 h of treatment.
Human skin fibroblasts (HFF-1, CVCL_3285) and human breast cancer MCF7 (HTB-22™, CVCL_0031) were purchased from ATCC and maintained in Dulbecco’s modified Eagle’s medium (DMEM) high glucose (EuroClone, Milan, Italy) supplemented with 10% of fetal bovine serum (FBS) and 1% of penicillin/streptomycin (Gibco—Thermo Fisher Scientific, MD, USA).
Cell metabolic activity of HFF-1 and MCF7 cells was assessed by MTT (3-(4,5-Dimethylthiazol-2-yl)-2,5-Diphenyltetrazolium Bromide) test (Sigma Aldrich, Milan, Italy). […] After the established exposure times, cells were incubated with MTT (0.5 mg/mL) and the optical density was measured as reported elsewhere. Results were expressed as the percentage of cells in the presence of vehicle (DMSO) set as 100% and each experiment was performed in triplicate (n = 3). Concentration–response curves and IC50 were fitted and calculated with GraphPad Prism 5.0 (GraphPad Software, San Diego, CA, USA).

MCF7 cells [2] = assay: Cytotoxicity test (lactate dehydrogenase release); type: cell-based, human; details: 24 h
Description: To assess whether the decrease in metabolic activity is a consequence of cytotoxic occurrence in the presence of compounds 1b, 1c, and 1j, lactate dehydrogenase (LDH) released from MCF7 was measured in response to loading concentrations of 0–250 µM after a 24 h exposure. […] It is, therefore, plausible to assume that all tested compounds exert their anti-proliferative effect on MCF7 cells through cytotoxic induction and 1c is the most promising compound, being active already at lower doses.
MCF7 cells were seeded and stimulated as previously described for the MTT test. After the exposure time, cell supernatants were collected, centrifuged at 450× g for 4 min, and stored on ice. In order to quantify the cytotoxicity of loading concentrations of compounds 1b, 1c, and 1j (0–250 µM), the CytoTox 96® Non-Radioactive Cytotoxicity Assay (Promega Corporation, Madison, WI, USA) was performed as previously reported. The results were normalized on MTT absorbances and expressed as fold increases on the LDH released by cultures in the presence of vehicle (DMSO) set as 1.

human aromatase = biological target: T1, human aromatase (Homo sapiens, UniProt P11511); assay: Aromatase inhibition, fluorimetric assay kit (Aromatase-CYP19A Inhibitor Screening kit, BioVision); type: biochemical; details: for IC50: tested at concentrations from 0.01 to 100 μM, mean of triplicate determinations
T1 construct: purchased BioVision, Milpitas, CA, USA
T1 sequence (P11511 1-503): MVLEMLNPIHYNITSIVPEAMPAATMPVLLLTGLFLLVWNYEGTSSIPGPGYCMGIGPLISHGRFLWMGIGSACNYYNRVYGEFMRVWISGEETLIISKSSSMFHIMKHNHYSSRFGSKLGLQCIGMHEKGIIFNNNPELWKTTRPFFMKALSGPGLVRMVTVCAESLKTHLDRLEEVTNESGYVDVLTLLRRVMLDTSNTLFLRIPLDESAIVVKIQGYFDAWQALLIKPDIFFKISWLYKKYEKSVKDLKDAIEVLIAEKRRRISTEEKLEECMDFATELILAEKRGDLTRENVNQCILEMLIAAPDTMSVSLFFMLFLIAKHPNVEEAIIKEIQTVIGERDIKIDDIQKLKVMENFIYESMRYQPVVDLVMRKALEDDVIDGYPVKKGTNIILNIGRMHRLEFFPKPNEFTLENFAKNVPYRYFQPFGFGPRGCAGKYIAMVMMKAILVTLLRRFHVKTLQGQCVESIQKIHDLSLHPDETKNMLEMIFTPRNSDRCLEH
Description: The activity was measured each minute for 60 min and the value obtained for each compound after 10 min was chosen to calculate the percentage of the aromatase inhibition.
The aromatase inhibitory activity was determined using a commercial fluorimetric assay kit (Aromatase-CYP19A Inhibitor Screening kit, BioVision, Milpitas, CA, USA), as reported elsewhere. The assay utilizes a fluorogenic aromatase substrate that is converted into a highly fluorescent metabolite detected in the visible range (Ex/Em 488/527 nm). […] During the incubation, the Aromatase Substrate/NADP+ mixture was prepared, and the reaction was started by adding 30 µL of this solution to each well (aside from the background control), reaching a final reaction volume of 100 µL/well. The fluorescence emission (527 nm) was measured immediately (within 1 min) by means of a fluorometer equipped with a 488 nm filter (GloMax®-Multi Detection System, Promega, Madison, WI, USA) and afterwards monitored for 60 min. […] The assay was performed in the same experimental conditions used for the initial screening of compounds. Dose–response curves were fitted with GraphPad Prism 5.0 (GraphPad Software, San Diego, CA, USA).

[3] = test system: MCF7 breast cancer cell line; assay: Cell metabolic activity / viability (MTT assay) on MCF7; type: cell-based, human; details: for IC50: MTT, tested 0 to 500 µM;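 on all read-outs here: MTT optical density read-out in human MCF7 cells, normalised to DMSO vehicle-treated cells as 100%, with IC50 derived from fitted concentration–response curves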
Description: Cell metabolic activity of HFF-1 and MCF7 cells was assessed by MTT (3-(4,5-Dimethylthiazol-2-yl)-2,5-Diphenyltetrazolium Bromide) test (Sigma Aldrich, Milan, Italy). […] After the established exposure times, cells were incubated with MTT (0.5 mg/mL) and the optical density was measured as reported elsewhere [63]. Results were expressed as the percentage of cells in the presence of vehicle (DMSO) set as 100% and each experiment was performed in triplicate (n = 3). Concentration–response curves and IC50 were fitted and calculated with GraphPad Prism 5.0 (GraphPad Software, San Diego, CA, USA).

MCF7 cells [4] = assay: Hematoxylin/eosin staining; type: cell-based, human; details: MCF7, 50 µM, 72 h, vs DMSO
Description: The effectiveness on MCF7 cells of compound 1c over the other compounds is confirmed by the hematoxylin/eosin staining (H&E) performed after 72 h of treatment at 50 µM. […] At a higher magnification (panels C and D), MCF7 cells show chromatin condensation (green arrows), as a typical sign of the initiation of cell death.
MCF7 cells were seeded (7 × 10^4 cells/well) in well glasses (Millicell® EZ slide, Merck Millipore, Burlington, MA, USA). After 24 h from seeding, cells were exposed to compound 1c at 50 µM for 72 h. Next, supernatants were removed, and cells were washed twice with PBS with calcium and magnesium (Euro Clone, Milan, Italy). MCF7 cells were fixed in the presence of p-formaldehyde 4% and stained with hematoxylin/eosin as reported elsewhere.

[5] = Chemical stability by RP-nano-LC at 37 °C; type: physicochemical; details: 72 h, 100 µg/mL; for Chemical stability, basic conditions: 0.1 mM sodium hydroxide solution pH 9, 37 °C; for Chemical stability, acidic conditions: 10 mM hydrochloric acid buffer pH 2.0, 37 °C
Excerpt: The results were compared with corresponding sulfonamides 2b–c and 2j. […] Advantages including low consumption of mobile and stationary phases and minimal sample volumes make this analytical tool more cost-effective and eco-friendlier with respect to the conventional HPLC. In addition, the reduction in particle diameter and the use of short chromatographic capillary column allow rapid analyses in isocratic elution mode.
Due to the low solubility of some compounds in pure water, the study was performed in an aqueous solution containing ACN/H2O as mobile phase. These conditions led to the chromatographic separation of each compound within 6 min. […] The analyses were performed with a nano-LC apparatus at appropriate intervals for 72 h, maintaining the prepared samples at a temperature of 37 °C.
Detection wavelength was set at 206 nm, and data were collected using ClarityTM Advanced Chromatography Software (Data Apex Ltd., Prague, Czech Republic).
To reduce the flow rate from µ- to nL/min, the HPLC pump delivering MeOH continuously and the injector were connected to a passive split-flow system. For this purpose, both the HPLC pump and injection valve were joined to a stainless-steel T-piece (Vici, Valco, Houston, TX, USA) by means of 500 µm id stainless steel tubes with lengths of 50 and 5 cm, respectively. The third entrance of the T-piece was connected to the MeOH reservoir of the pump through a fused silica capillary (50 µm id × 50 cm), achieving continuous recycling of the organic solvent. To minimize the dead volume and consequently reduce the band broadening effect, the capillary column was directly inserted into the modified injector, which was used for both sample loading and mobile phase reservoir. Samples and mobile phases were introduced into the capillary column through the injection valve by filling the loop with the sample solutions, switching the valve for the appropriate time, and then flushing the loop with the mobile phase. The analysis started immediately after positioning the injector device in the injection mode. […] In the optimized conditions, the flow rate of the column was about 450 nL/min. Nano-LC experiments were performed in uncoated fused silica capillaries (100 μm internal diameter) from Composite Metal Services, Hallow, UK), packed in our laboratory following the slurry packing procedure as described previously. The capillary column was packed with ChromSpher C18, 3 μm particle size (Varian, Palo Alto, CA, USA) for 15 cm.
Chromatographic conditions and standards preparation were as follows: the nano-LC analyses were performed in the capillary column employing as mobile phase a mixture of ACN/H2O ([…]) containing a 10 mM sodium hydrocarbonate buffer, pH 8.5. […]

[6] = Homo sapiens, MCF7, 24 h, 24 h, read-out: MCF7 Cells IC50 24 h
[7] = Homo sapiens, MCF7, 72 h, 72 h, read-out: MCF7 Cells IC50 72 h

SMILES	inhibition at 1 µM (human aromatase)	IC50 (human aromatase)	IC50 [3, 6]	IC50 [3, 7]	Viability (% of control) - 24 h ([3]; MCF7, 10 µM, 24 h)	Viability (% of control) - 72 h ([3]; MCF7, 10 µM, 72 h)	Viability (% of control) - 24 h ([3]; MCF7, 25 µM, 24 h)	Viability (% of control) - 72 h ([3]; MCF7, 25 µM, 72 h)	Viability (% of control) - 24 h ([3]; MCF7, 50 µM, 24 h)	Viability (% of control) - 72 h ([3]; MCF7, 50 µM, 72 h)	Viability (% of control) - 24 h ([3]; MCF7, 100 µM, 24 h)	Viability (% of control) - 72 h ([3]; MCF7, 100 µM, 72 h)	Viability (% of control) - 24 h ([3]; MCF7, 250 µM, 24 h)	Viability (% of control) - 72 h ([3]; MCF7, 250 µM, 72 h)	Viability (% of control) - 24 h ([3]; MCF7, 500 µM, 24 h)	Viability (% of control) - 72 h ([3]; MCF7, 500 µM, 72 h)	Chemical stability, basic conditions [5]	Chemical stability, acidic conditions [5]	other results
Cc1ccc(S(=O)(=O)Oc2ccc(/C=C/c3ccccc3)cc2)cc1[N+](=O)[O-] [1c, 4-[(E)-2-Phenylvinyl]phenyl 4-methyl-3-nitrobenzenesulfonate]	91%	3.17 µM	29.2 µM	40 µM	85.23 ± 1.29 % of control	96.62 ± 6.99 % of control	73.08 ± 2.67 % of control	91.88 ± 5.31 % of control	37.39 ± 0.66 % of control	46.19 ± 1.67 % of control	36.17 ± 1.56 % of control	35.22 ± 2.21 % of control	38.64 ± 1.23 % of control	38.30 ± 4.07 % of control	34.30 ± 1.43 % of control	15.08 ± 0.67 % of control			HFF-1 viability (in words) ([1]; 0–250 µM, 24 and 72 h): significant reduction in viability only at the maximum concentration and after 72 h of treatment; Selectivity index (SI) over normal fibroblasts ([1]; HFF-1 vs MCF7, after 24 h): 1.82; LDH release, dose dependence (in words) (MCF7 cells [2]; MCF7, 0–250 µM): raises only at the highest concentration administered (250 µM); LDH released, fold vs vehicle (DMSO) set as 1 (MCF7 cells [2]; MCF7, 50 µM): three folds more; LDH released, fold vs vehicle (DMSO) set as 1 (MCF7 cells [2]; MCF7, 250 µM): almost five folds more; Potency in inhibiting aromatase relative to RSV (human aromatase; compared to RSV): twentyfold more potent than RSV; Metabolically active cells ([3]; MCF7, 50 µM, 24 h, DMSO alone = 100%): around 60%; IC50 ([3]; 24 h, read-out: MCF7 Cells IC50 24 h): 29.2 ± 1.9 µM; IC50 ([3]; 72 h, read-out: MCF7 Cells IC50 72 h): 39.9 ± 2.1 µM; Cell number by H&E staining (in words) (MCF7 cells [4]): cell number is dramatically decreased
O=S(=O)(Cc1ccccc1)Oc1ccc(/C=C/c2ccccc2)cc1 [1j, 4-[(E)-2-Phenylvinyl]phenyl phenylmethanesulfonate]	100%	2.21 µM	> 250 µM	> 250 µM	85.47 ± 6.41 % of control	96.53 ± 7.12 % of control	86.33 ± 14.64 % of control	95.30 ± 7.88 % of control	70.06 ± 3.80 % of control	87.57 ± 5.26 % of control	74.91 ± 9.24 % of control	72.67 ± 3.46 % of control	51.84 ± 3.08 % of control	69.54 ± 4.11 % of control	38.88 ± 5.23 % of control	46.31 ± 4.73 % of control	highly degraded because of their precipitation in the basic solution	stable over the entire range of time	
O=S(=O)(Cc1ccccc1)Nc1ccc(/C=C/c2ccccc2)cc1 [2j, 1-Phenyl-N-{4-[(E)-2-phenylvinyl]phenyl}methanesulfonamide]																	highly degraded because of their precipitation in the basic solution	stable over the entire range of time	
